In patent publication US9518061B2, “Substituted pyrazolylpyrazole derivative and use of same as herbicide” (KYOYU AGRI CO., LTD., priority 2013, dated 2016):

What was measured:
Format in all cases: in vivo
Scirpus juncoides = experiment: Paddy herbicidal activity test; details: irrigated paddy pot, 30 days
Experimental: (§1) 1. Paddy Herbicidal Activity Test
(§2) Rice paddy soil was filled into a 1/10000 are pot followed by the addition of suitable amounts of water and chemical fertilizer, kneading, seeding with Echinochloa crus-galli, Monochoria vaginalis and Scirpus juncoides and maintaining in an irrigated state at a water depth of 3 cm.
(§3) Wettable powder of Target Compound (I) shown in Table 1 prepared in compliance with the preparation examples were diluted with a suitable amount of water, rice plants in the 2.0 leaf stage were transplanted during 3.5 leaf stage of Echinochloa crus-galli, and treated by dropping in chemical in the prescribed amount per are using a pipette.
(§4) After treating for 30 days in a glass greenhouse at an average atmospheric temperature of 30° C., the herbicidal efficacy thereof was investigated.
(§5) Evaluation of herbicidal efficacy was carried out by comparing growth inhibition rate (%) with an untreated group, while evaluation of phytotoxicity was carried out by comparing growth inhibition rate (%) with the state of a complete eradication group, and were evaluated at 11 levels indicated below.

Echinochloa crus-galli = experiment: Paddy herbicidal activity test; details: irrigated paddy pot, treated at 3.5 leaf stage of Echinochloa crus-galli, 30 days
Experimental: as §1, §2, §3, §4, §5

Monochoria vaginalis = experiment: Paddy herbicidal activity test; details: irrigated paddy pot, 30 days
Experimental: as §1, §2, §3, §4, §5

Chenopodium album [1] = experiment: Farming soil treatment test; details: soil surface spray prior to weed growth, 30 days
Experimental: (§6) 2. Farming Soil Treatment Test
(§7) Field soil was filled into a 1/6000 are pot followed by seeding with Digitaria ciliaris, Chenopodium album and Amaranthus retroflexus and covering with soil.
(§8) Wettable powder of compounds of formula (D shown in Table 1 prepared in compliance with the preparation examples were diluted with water to the prescribed amount of chemical and uniformly sprayed onto each soil surface layer using 10 liters of sprayed water per are prior to weed growth following seeding.
as §4
(§9) Evaluation of herbicidal efficacy was carried out in the same manner as the above-mentioned Test Example 1.

Amaranthus retroflexus [2] = experiment: Farming soil treatment test; details: soil surface spray prior to weed growth, 30 days
Experimental: as §6, §7, §8, §4, §9

Digitaria ciliaris [3] = experiment: Farming soil treatment test; details: soil surface spray prior to weed growth, 30 days
Experimental: as §6, §7, §8, §4, §9

Rice plants = experiment: Paddy herbicidal activity test, phytotoxicity to transplanted rice; details: rice transplanted in 2.0 leaf stage, 30 days
Experimental: as §1, §2, §3, §4, §5

Chenopodium album [4] = experiment: Weed foliar treatment test; details: foliar spray, 3 weeks
Experimental: (§10) 3. Weed Foliar Treatment Test
(§11) Soil was filled into a 1/6000 are pot followed by seeding with Digitaria ciliaris, Chenopodium album and Amaranthus retroflexus, covering with soil, and cultivating in a glass greenhouse at an average atmospheric temperature of 25° C.
(§12) Wettable powder of Target Compound (I) shown in Table 1 prepared in compliance with the preparation examples were diluted with water to the prescribed amount of chemical and uniformly sprayed onto the weeds using 15 liters of sprayed water per are when Digitaria ciliaris had grown to the 1.0 to 2.0 leaf stage.
(§13) After treating for 3 weeks in a glass greenhouse at an average atmospheric temperature of 25° C., the herbicidal efficacy thereof was investigated.
as §9

Amaranthus retroflexus [5] = experiment: Weed foliar treatment test; details: foliar spray, 3 weeks
Experimental: as §10, §11, §12, §13, §9

Digitaria ciliaris [6] = experiment: Weed foliar treatment test; details: foliar spray at 1.0 to 2.0 leaf stage of Digitaria ciliaris, 3 weeks
Experimental: as §10, §11, §12, §13, §9

SMILES | herbicidal efficacy (growth inhibition rate level) Scirpus juncoides (Scirpus juncoides; 1g a.i./10a) | herbicidal efficacy (growth inhibition rate level) Scirpus juncoides (Scirpus juncoides; 5g a.i./10a) | herbicidal efficacy (growth inhibition rate level) Echinochloa crus-galli (Echinochloa crus-galli; 1g a.i./10a) | herbicidal efficacy (growth inhibition rate level) Echinochloa crus-galli (Echinochloa crus-galli; 5g a.i./10a) | herbicidal efficacy (growth inhibition rate level) Monochoria vaginalis (Monochoria vaginalis; 1g a.i./10a) | herbicidal efficacy (growth inhibition rate level) Monochoria vaginalis (Monochoria vaginalis; 5g a.i./10a) | herbicidal efficacy (growth inhibition rate level) Chenopodium album (Chenopodium album [1]; 5g a.i./10a) | herbicidal efficacy (growth inhibition rate level) Chenopodium album (Chenopodium album [1]; 10g a.i./10a) | herbicidal efficacy (growth inhibition rate level) Amaranthus retroflexus (Amaranthus retroflexus [2]; 5g a.i./10a) | herbicidal efficacy (growth inhibition rate level) Amaranthus retroflexus (Amaranthus retroflexus [2]; 10g a.i./10a) | herbicidal efficacy (growth inhibition rate level) Digitaria ciliaris (Digitaria ciliaris [3]; 5g a.i./10a) | herbicidal efficacy (growth inhibition rate level) Digitaria ciliaris (Digitaria ciliaris [3]; 10g a.i./10a) | phytotoxicity (growth inhibition rate level) Rice plants (Rice plants; 1g a.i./10a) | phytotoxicity (growth inhibition rate level) Rice plants (Rice plants; 5g a.i./10a) | herbicidal efficacy (growth inhibition rate level) Chenopodium album (Chenopodium album [4]; 5g a.i./10a) | herbicidal efficacy (growth inhibition rate level) Chenopodium album (Chenopodium album [4]; 10g a.i./10a) | herbicidal efficacy (growth inhibition rate level) Amaranthus retroflexus (Amaranthus retroflexus [5]; 5g a.i./10a) | herbicidal efficacy (growth inhibition rate level) Amaranthus retroflexus (Amaranthus retroflexus [5]; 10g a.i./10a) | herbicidal efficacy (growth inhibition rate level) Digitaria ciliaris (Digitaria ciliaris [6]; 5g a.i./10a) | herbicidal efficacy (growth inhibition rate level) Digitaria ciliaris (Digitaria ciliaris [6]; 10g a.i./10a)
N#Cc1cnn(-c2nn3c(c2Cl)CCCC3)c1NCCCl [Control agent 4.92] | 2 (20% to less than 30%) | 4 (40% to less than 50%) | 1 (10% to less than 20%) | 2 (20% to less than 30%) | 0 (0 (exponent): 0% to less than 10% (growth inhibition rate)) | 1 (10% to less than 20%) | 4 (40% to less than 50%) | 5 (50% to less than 60%) | 3 (30% to less than 40%) | 4 (40% to less than 50%) | 2 (20% to less than 30%) | 3 (30% to less than 40%) | 0 (0 (exponent): 0% to less than 10% (growth inhibition rate)) | 1 (10% to less than 20%) | 3 (30% to less than 40%) | 6 (60% to less than 70%) | 4 (40% to less than 50%) | 5 (50% to less than 60%) | 4 (40% to less than 50%) | 5 (50% to less than 60%)
COCCN(C(=O)C(F)(F)F)c1c([N+](=O)[O-])cnn1-c1nn2c(c1Cl)CCCC2 [Compound 20] | 9 (90% to less than 100%) | 10 (100%) | 9 (90% to less than 100%) | 10 (100%) | 9 (90% to less than 100%) | 9 (90% to less than 100%) | 10 (100%) | 10 (100%) | 10 (100%) | 10 (100%) | 10 (100%) | 10 (100%) | 1 (10% to less than 20%) | 1 (10% to less than 20%) | 10 (100%) | 10 (100%) | 10 (100%) | 10 (100%) | 10 (100%) | 10 (100%)
CCN(C(=O)C(F)(F)F)c1c(C#N)cnn1-c1nn2c(c1Cl)CCCC2 [Control agent 4.238] | 2 (20% to less than 30%) | 3 (30% to less than 40%) | 2 (20% to less than 30%) | 4 (40% to less than 50%) | 0 (0 (exponent): 0% to less than 10% (growth inhibition rate)) | 1 (10% to less than 20%) | 4 (40% to less than 50%) | 5 (50% to less than 60%) | 4 (40% to less than 50%) | 5 (50% to less than 60%) | 5 (50% to less than 60%) | 6 (60% to less than 70%) | 2 (20% to less than 30%) | 2 (20% to less than 30%) | 4 (40% to less than 50%) | 6 (60% to less than 70%) | 5 (50% to less than 60%) | 6 (60% to less than 70%) | 4 (40% to less than 50%) | 5 (50% to less than 60%)
COCCNc1c(C#N)cnn1-c1nn2c(c1Cl)CCCC2 [Control agent 4.63] | 1 (10% to less than 20%) | 2 (20% to less than 30%) | 2 (20% to less than 30%) | 3 (30% to less than 40%) | 1 (10% to less than 20%) | 2 (20% to less than 30%) | 4 (40% to less than 50%) | 5 (50% to less than 60%) | 4 (40% to less than 50%) | 5 (50% to less than 60%) | 3 (30% to less than 40%) | 3 (30% to less than 40%) | 0 (0 (exponent): 0% to less than 10% (growth inhibition rate)) | 1 (10% to less than 20%) | 3 (30% to less than 40%) | 5 (50% to less than 60%) | 3 (30% to less than 40%) | 6 (60% to less than 70%) | 2 (20% to less than 30%) | 4 (40% to less than 50%)
N#Cc1cnn(-c2nn3c(c2Br)CCCC3)c1N(CCCl)C(=O)C(F)(F)F [Compound 16] | 8 (80% to less than 90%) | 9 (90% to less than 100%) | 9 (90% to less than 100%) | 10 (100%) | 7 (70% to less than 80%) | 8 (80% to less than 90%) | 10 (100%) | 10 (100%) | 10 (100%) | 10 (100%) | 10 (100%) | 10 (100%) | 0 (0 (exponent): 0% to less than 10% (growth inhibition rate)) | 1 (10% to less than 20%) | 10 (100%) | 10 (100%) | 10 (100%) | 10 (100%) | 10 (100%) | 10 (100%)
